Data as given in patent EP0476658B1, “1-Phenyl-3-phenyl-2-propyne-1-ones” (MERRELL DOW PHARMACEUTICALS INC., priority 1990, dated 1992).

Experiments:
[1] = system: Rat PMNL; test: Superoxide anion (SOA) production by stimulated PMNL; assay type: cell-based
Description: (§1) Rat PMNL were obtained from exudates resulting from peritoneal injection of 6 mL of 8% sodium caseinate. Eighteen hours after injection rats were killed by carbon dioxide inhalation and the peritoneal cavity lavaged with Hank's balanced salt solution (HBSS). After concentration of the PMNL by centrifugation, contaminating erythrocytes were removed by hypotonic lysis. The PMNL were then washed twice by centrifugation (400 x g for 10 minutes) and resuspended in HBSS. Cell viability was greater than 90% by Trypan Blue exclusion and greater than 90% of the cells were PMNL by Wright-Giemsa stain.
Aliquots (50 µl) of a rat PMNL suspension (2 x 10⁷ cells/mL in HBSS) were incubated with 50 µl of HBSS containing vehicle (0.3% DMSO) or compound for 30 minutes at 37°C as above. One hundred microliters of buffer containing 5.98 mg/mL of cytochrome C (Sigma Type III) and 0.1 mg/mL catalase, plus the compounds where appropriate, were then added to each sample. A blank for spectrophotometric measurement, containing unstimulated cells in the presence of cytochrome C, catalase and SOD, was also prepared. […] Aliquots (200 µl) of supernatant were then transferred to a second, flat-well microtiter plate and measured spectrophotometrically at 550 nm. […]

[2] = system: Rat PMNL; test: Measurement of intracellular calcium (Fura-2) in fMLP-stimulated PMNL; assay type: cell-based; settings: preincubation of PMNL with compound 15 minutes at 37°C, fMLP stimulus; second wave = influx of extracellular calcium
Description: as §1
Intracellular calcium levels were obtained using Fura-2 as fluorescent indicator (Grynkiewicz et al., 1985). Fura-2 was loaded into PMNL as the acetoxymethyl ester (Fura-2/AM) using the method of Korchak et al., (1988). Specifically, 1 X 10⁸ PMNL/mL were incubated in HBSS with 10 µM Fura-2/AM for 10 minutes at 37°C. The cells suspension was then diluted ten fold with HBSS and further incubated for another 20 minutes. The cells were then centrifuged (400 x g for 8 minutes at 25°C) and the PMNL (1 x 10⁷ cells/mL) resuspended in HBSS containing 1% bovine serum albumin. Cells were stored at room temperature and used within 3 hours.
Intracellular calcium level determinations were made using a dual wavelength spectrofluorometer (Photon Technology International, New Brunswick, NJ). […]

[3] = system: Rat PMNL; test: Myeloperoxidase (MPO) release from stimulated PMNL; assay type: cell-based; settings: fMLP (with cytochalasin B), opsonized zymosan or ionomycin stimulation
Description: as §1
MPO release was determined using the MPO catalyzed oxidation of O-dianisidine. The experiments were carried out in 96-well microtiter plates (Webster and Henson, 1978). In each well, 50 microliter (µl) aliquots of a PMNL suspension (2 x 10⁷ cells/mL in HBSS) were incubated with 50 µl of HBSS containing vehicle (0.3% DMSO) or inhibitor for 30 minutes at 37°C. The final DMSO concentration never exceeded 0.3% and was constant throughout each experiment. […] The stimuli were added in 50 µl HBSS which also contained the compounds or vehicle, as appropriate, to avoid changing the inhibitor concentration. Cell activation was terminated by centrifugation of the plates at 600 x g for 5 minutes at 22°C. […] Absorbances of the samples were measured at 450 nm. […]

[4] = system: Carrageenin-Induced Rat Paw Edema; test: Carrageenin-induced rat paw edema; assay type: in vivo; settings: 75 mg/Kg i.p. one hour prior to carrageenin; paw volume three hours after; male Sprague Dawley rats
Description: Charles River male Sprague Dawley rats weighing 90 to 100 grams were used. Inflammation of the left hind paw was induced by a 1% carrageenin solution (0.05 cc), injected into the plantar surface of the paw. The contralateral paw was injected with an equal volume of saline. Drugs were administered 75 mg/Kg i.p. (1 cc/100 grams) one hour prior to paw injection. Three hours following the carrageenin injection the difference in volume of the control and inflamed paw was measured. Each paw was immersed in a well of mercury and the volume of mercury displaced was recorded. Paws were uniformly dipped into the mercury up to the beginning of the hairline. A venous pressure transducer, coupled to an chart recorder, was employed to measure the small volumes of mercury displaced. Each group measurement consists of the average of four rats, each with three separate measurements.

[5] = system: Mustard Oil-Induced Mouse Ear Edema; test: Mustard oil-induced mouse ear edema; assay type: in vivo; settings: 30 minutes prior to mustard oil, ear weight 30 minutes after, male CD-1 mice
Description: Charles River male CD-1 mice weighing 30-60 grams were divided into randomized groups. They were dosed i.p. for 30 minutes prior or orally 1 hour prior to application of 20 ul of mustard oil (10% isothiocyanate in acetone) to the right ear. After 30 minutes the mice were sacrificed and an 8 millimeter diameter circular punch biopsy of each ear was obtained and weighed. The difference between the left (control) and right (treated) ear weights were expressed as percent increase.

With `O=C(C#Cc1ccncc1)c1ccccc1` [MDL 101,098, 1-phenyl-3-(4-pyridinyl)-2-propyne-1-one] the “inhibition of superoxide anion production” value ([1]; PMA and OZ stimulation) was “inhibited in a dose dependent fashion” and the inhibition at 1 µM ([1]; Rattus norvegicus, PMNL, inhibition of superoxide anion production, PMA, CONC 1 uM) was -20.7%.
`O=C(C#Cc1ccc(OCc2ccccc2)cc1)c1ccccc1` [MDL 101,097, 1-phenyl-3-[(4-benzyloxy)phenyl]-2-propyne-1-one] was tested, and the “effect on fMLP-induced intracellular calcium changes” value [2] was “selective concentration-dependent suppression of the second wave of intracellular calcium changes”.
For `CN(C)c1ccc(C(=O)C#Cc2ccncc2)cc1` [MDL 102,175, 1-(4-dimethylaminophenyl)-3-(4-pyridinyl)-2-propynel-1-one], the “inhibition of release of myeloperoxidase” value [3] was “dose dependent inhibition”.
`COc1ccc(COc2cccc(C#CC(=O)c3ccccc3)c2)cc1` [MDL 100,225, 1-phenyl-3-[3-(4-methoxybenzyloxy)phenyl]-2-propyne-1-one] was tested, and the “%Inhibition” value [4] was 24.3% ± 10.3%, the “%Inhibition” value ([5]; 10 mg/Kg i.p.) was 25.3 ± 17.8% and the “%Inhibition” value ([5]; 30 mg/Kg i.p.) was 33.4 ± 14.6%. The “%Inhibition” value ([5]; 100 mg/Kg i.p.) was 60.9 ± 11.7%.
